Test results reported in patent US20120263736A1, “METHOD FOR PREDICTING AND TREATING A STERILE INFLAMMATION AND DISCRIMINATING BETWEEN STERILE AND INFECTIVE INFLAMMATION” (Beth Israel Deaconess Medical Center, Inc., priority 2009, published 2012).

Columns and labels:
Type in all cases: cell-based
[1] = tested on: human PMN; experiment: PMN cytosolic calcium ([Ca2+]i) flux
Source text: (§1) PMN isolation (Hauser et al., J. Leukoc. Biol. 69:63-68, 2001; Fekete et al., Shock 16:15-20, 2001), cytosolic calcium studies (Hauer et al., J. Leukoc. Biol. 69:63-68, 2001; Hauser et al., J. Trauma 48:592-598, 2000; Tarlowe et al., J. Immunol. 171:2066-2073, 2003; Grynkiewicz et al., J. Biol. Chem. 260:2440-2450, 1985), IL-8 synthesis measurement by ELISA (Zallen et al., J. Trauma 46:42-48, 1999), cell signaling by Western blots (Zhang et al., Life Sci. 77:3068-3077, 2005), transwell chemotaxis (Tarlowe et al., J. Immunol. 171:2066-2073, 2003), and video-microscopy chemotaxis assays (Chen et al., Science 314:1792-1795, 2006) were performed as previously described.
Study data was assessed for statistical significance using Student's (unpaired) t-test or Analysis of Variance (ANOVA) where appropriate using a SigmaStat program with post-hoc tests chosen by the computer. [Ca^2+]i transients are reported as the mean change from basal [Ca^2+]i in nanomoles per liter (nM/L). Prolonged [Ca^2+]i fluxes are reported as the area under the curve (AUC) of measured change from basal [Ca^2+]i over the observation period (nM·sec). All data are reported as mean±s.e.m. with significance accepted at p<0.05.

[2] = tested on: PMN; details: for PMN chemotaxis to the agent: MTD 100 μg/ml, mtDNA 10 μg/ml, CpG DNA 10 μg/ml, LPS 1 μg/ml
Source text: as §1
Time-lapse video-microscopic chemotaxis was assayed as described previously (Chen et al., Science 314:1792-1795, 2006). Cells were exposed to a chemoattractant gradient field by slowly releasing MTD (˜100 μg/ml) or fMLF (10 nM) from a micropipette tip placed in proximity to the cells. The migration paths of individual cells were plotted using Adobe Illustrator. […] Experiments were repeated with multiple PMN and MTD isolates.

[3] = tested on: human PMN; experiment: PMN p38 and p44/42 MAPK phosphorylation (Western blot); details: chloroquine 10 μg/mL
Protocol: (§2) PMN degranulation was assessed by measuring MMP-8 release. Human PMNs were suspended in HBSS with 1.8 mM Ca^2+ at 37° C. for 10 minutes while exposed to MTD, mtDNA, or fMLF at indicated concentrations. […] After stimulation, PMN were placed on ice and centrifuged. Supernatants were then assayed for MMP-8 by Western blot. Residual PMN were lysed to assay for MAPKs.
(§3) PMN activation was assessed by measuring MMP-8/9 degranulation and intracellular MAPK phosphorylation. Human PMN were exposed to mtDNA and nDNA at 1-100 μg/mL, 30 minutes at 37° C. After stimulation, PMN were placed on ice and centrifuged (10,000 g at 4° C. for 2 minutes) to obtain supernatants, which were then assayed for MMP-8 and MMP-9 by Western blot as described below. M-PER (Pierce, Rockford, Ill.) was then used to lyse the PMN cell pellets for determination of total and phosphorylated MAPKs by Western blot as described below. Total protein concentration of the lysates was determined by BCA assay.
(§4) Rat liver homogenates and supernatants from human PMN or human PMN lysates were boiled for 5 minutes in SDS sample buffer. Proteins were separated by SDS-PAGE using a […] polyacrylamide gel. Tris-glycine polyacrylamide gradient gels were purchased from Novex (San Diego, Calif.). Separated proteins were transferred to nitrocellulose membrane (0.45 μm pore size; Bio-Rad, Hercules, Calif.). […]

[4] = tested on: human PMN; details: mtDNA 100 μg/mL; preincubation with chloroquine 10 μg/mL
Protocol: as §2, §3, §4

Molecule: Nc1ncnc2c1ncn2[C@@H]1O[C@H](COP(=O)(O)OP(=O)(O)OP(=O)(O)O)[C@@H](O)[C@H]1O [ATP]
- PMN [Ca2+]i mobilization ([1]; 1 μM): mobilizes

Molecule: C/C=C/C[C@@H](C)[C@@H](O)[C@H]1C(=O)N[C@@H](CC)C(=O)N(C)CC(=O)N(C)[C@@H](CC(C)C)C(=O)N[C@@H](C(C)C)C(=O)N(C)[C@@H](CC(C)C)C(=O)N[C@@H](C)C(=O)N[C@H](C)C(=O)N(C)[C@@H](CC(C)C)C(=O)N(C)[C@@H](CC(C)C)C(=O)N(C)[C@H](C(C)C)C(=O)N1C [CsH, Cyclosporin H]
- FPR-induced calcium depletion ([1]; human PMN): specifically inhibits
- PMN migrating to fMLF, effect of inhibitor ([2]; CsH 1 μM, fMLF 10 nM): significantly inhibits
- PMN chemotaxis to IL-8, effect of inhibitor ([2]; CsH, IL-8 10 nM): no effects

Molecule: CCN(CC)CCCC(C)Nc1ccnc2cc(Cl)ccc12 (stereo not drawn) [chloroquine]
- phosphorylation of p38 MAPK in response to mtDNA, effect of inhibitor ([3]; mtDNA 100 μg/mL): not inhibited
- p38 MAPK responses to mtDNA, effect of inhibitor ([3]; mtDNA 1 and 5 μg/mL, 30 minutes, 37° C.): markedly inhibited
- mtDNA-induced release of MMP-8 and -9, effect of inhibitor [4]: suppressed

Molecule: CSCC[C@H](NC=O)C(=O)N[C@@H](CC(C)C)C(=O)N[C@@H](Cc1ccccc1)C(=O)O [fMLF, N-formyl-methionyl-leucyl-phenylalanine]
- PMN chemotaxis to the agent ([2]; fMLF 10 nM, IL-8 10 nM): shows chemotaxis

Molecule: IL-8: chemokine used as chemoattractant
- PMN chemotaxis to the agent ([2]; fMLF 10 nM, IL-8 10 nM): shows chemotaxis
